For orientation: GI50 means the concentration at which growth is held to half of that of the control.

We go through five compounds from patent US8835421B2, “Benzimidazole linked pyrrolo[2,1-c[1,4] benzodiazepine hybrids as potential antitumour agents and process for the preparation thereof” (Council of Scientific and Industrial Research, priority 2008, dated 2014).

Bounds are passed on as bounds.

The subject of test [1] is Renal cancer cell lines. Description: NCI in vitro anticancer screen (SRB, 48 h), renal. The following applies: average of six to nine cell lines; for GI50: Homo sapiens, read-out: Log10 GI50 (converted). The test is classed as cell-based, human. The procedure:
(§1) Anticancer activity: In vitro biological activity studies were carried out at the National Cancer Institute (USA).
(§2) The compounds were evaluated for in vitro anticancer activity against sixty human tumour cells derived from nine cancer types (leukemia, non-small-cell lung, colon, CNS, melanoma, ovarian, prostate, and breast cancer) as shown in Table 3. For each compound, dose response curves for each cell line were measured at a minimum of five concentrations at 10 fold dilutions. A protocol of 48 h continuous drug exposure was used and a sulforhodamine B (SRB) protein assay was used to estimate cell viability or growth. The concentration causing 50% cell growth inhibition (GI50), total cell growth inhibition (TGI 0% growth) and 50% cell death (LC50, −50% growth) compared with the control was calculated. The mean graph midpoint values of log10 TGI and log10 LC50 as well as log10 GI50 for 8c, 8e, 11a, 11c and 14 are listed in Table 2.
(§3) Each cancer type represents the average of six to nine different cancer cell lines.

Test [2] deals with Melanoma cancer cell lines. Description: NCI in vitro anticancer screen (SRB, 48 h), melanoma. Format: cell-based, human. Conditions: average of six to nine cell lines; for GI50: Homo sapiens, read-out: Log10 GI50 (converted). The procedure:
as §1, §2, §3

In test [3] the test system is Breast cancer cell lines. Description: NCI in vitro anticancer screen (SRB, 48 h), breast. Format: cell-based, human. Conditions: average of six to nine cell lines; for GI50: Homo sapiens, read-out: Log10 GI50 (converted). The procedure: as §1, §2, §3
Test [4] concerns sixty human tumour cells. Description: NCI in vitro anticancer screen (SRB, 48 h), mean graph midpoints over all cell lines. The test is classed as cell-based. The following applies: 48 h continuous drug exposure, SRB assay; for Log10LC50 mean graph midpoint (MG_MID): 50% cell death; for Log10GI50 mean graph midpoint (MG_MID): 50% cell growth inhibition; for Log10TGI mean graph midpoint (MG_MID): total cell growth inhibition. The procedure: as §1, §2

The subject of test [5] is CNS cancer cell lines. Description: NCI in vitro anticancer screen (SRB, 48 h), CNS. The following applies: average of six to nine cell lines; for GI50: Homo sapiens, read-out: Log10 GI50 (converted). Format: cell-based, human. The procedure: as §1, §2, §3
Test [6] deals with Ovarian cancer cell lines. Description: NCI in vitro anticancer screen (SRB, 48 h), ovarian. Conditions: average of six to nine cell lines; for GI50: Homo sapiens, read-out: Log10 GI50 (converted). Format: cell-based, human. As for the experimental part: as §1, §2, §3
Test [7] relates to Colon cancer cell lines. Description: NCI in vitro anticancer screen (SRB, 48 h), colon. Format: cell-based, human. The following applies: average of six to nine cell lines; for GI50: Homo sapiens, read-out: Log10 GI50 (converted). The procedure:
as §1, §2, §3

In test [8] the test system is Prostate cancer cell lines. Description: NCI in vitro anticancer screen (SRB, 48 h), prostate. Format: cell-based, human. Conditions: average of six to nine cell lines; for GI50: Homo sapiens, read-out: Log10 GI50 (converted). The procedure:
as §1, §2, §3

The test system of test [9] is calf thymus DNA (CT-DNA). Description: Thermal denaturation studies with duplex-form calf thymus DNA. Conditions: [PBD]:[DNA] 1:5, CT-DNA 100 μM, ligand 20 μM, sodium phosphate buffer pH 7.00; for ΔTm after incubation at 37° C. for 0 h: 0 h incubation at 37° C.; for ΔTm after incubation at 37° C. for 18 h: 18 h incubation at 37° C. The test is classed as binding. As for the experimental part: Compounds have been subjected to thermal denaturation studies with duplex-form calf thymus DNA (CT-DNA) using an modification of a reported procedure (Newman, M. S. Carcinog-compr. Surv. 1976, 1, 203; (b) Hecht, S. S.; Loy, M.; Hoffman, Carcinog-compr. Surv. 1976, 1, 325). Working solutions in aqueous buffer (10 mM NaH2PO4/Na2HPO4, 1 mM Na2EDTA, pH 7.00+0.01) containing CT-DNA (100 μm in phosphate) and the PBD (20 μm) have been prepared by addition of concentrated PBD solutions in DMSO to obtain a fixed [PBD]/[DNA] molar ratio of 1:5. The DNA-PBD solutions have been incubated at 37° C. for 0 and 18 h prior to analysis. Samples have been, monitored at 260 nm using a Beckman DU-800 spectrophotometer fitted with high performance temperature controller, and heated at 1° C. min^−1 in the 40-110° C. range. DNA helix→coil transition temperatures (Tm) have been obtained from the maxima in the d(A260)/d T derivative plots. Drug-induced alterations in DNA melting behavior are given by: ΔTm=Tm(DNA+PBD)−Tm(DNA alone), where the Tm value for the PBD-free CT-DNA is 69.1±0.01.
The DNA binding activity for these novel C8-linked benzimidazole-PBD hybrids has been examined by thermal denaturation studies using calf thymus (CT) DNA. […] The data for the compounds 8a-g, 11a-d and 14 is included in Table 1 for comparison.

Test [10] concerns Non-small-cell-lung cancer cell lines. Description: NCI in vitro anticancer screen (SRB, 48 h), non-small-cell lung. The test is classed as cell-based, human. Conditions: average of six to nine cell lines; for GI50: Homo sapiens, read-out: Log10 GI50 (converted). As for the experimental part: as §1, §2, §3
Test [11] deals with Leukemia cancer cell lines. Description: NCI in vitro anticancer screen (SRB, 48 h), leukemia. Conditions: average of six to nine cell lines; for GI50: Homo sapiens, read-out: Log10 GI50 (converted). The test is classed as cell-based, human. As for the experimental part: as §1, §2, §3

On to `COc1cc2c(cc1OCCCCCn1c(-c3ccco3)nc3ccccc31)N=C[C@@H]1CCCN1C2=O` [Compound 8c, 7-Methoxy-8-{5-[2-(2-furyl)-1H-benzimidazol-1-yl]pentyl}oxy-(11aS)-1,2,3,11a-tetrahydro-5H-pyrrolo[2,1-c][1,4]benzodiazepin-5-one], for which the GI50 in [1] was less than 12 nM; in [2], less than 12 nM; in [3], less than 16.2 nM; in test [5], less than 10 nM; in test [6], less than 10 nM; in [7] it was less than 12 nM. For the same compound, the GI50 was less than 22.9 nM in test [8], less than 12 nM in test [10] and less than 10 nM in test [11]. The “Log10LC50 mean graph midpoint (MG_MID)” value in test [4] is −4.60. Further, the “Log10GI50 mean graph midpoint (MG_MID)” value in test [4] is −7.91. Moreover, the “Log10TGI mean graph midpoint (MG_MID)” value in test [4] was −6.89. For the same compound, the “ΔTm after incubation at 37° C. for 0 h” value in test [9] turned out to be 5.1 °C. In addition, the “ΔTm after incubation at 37° C. for 18 h” value in [9] came out at 7.0 °C.

With `COC(=O)c1ccc2nc(-c3cn(C)c4ccccc34)n(CCCCOc3cc4c(cc3OC)C(=O)N3CCC[C@H]3C=N4)c2c1` [Compound 14, Methyl-1-[(4-(11aS)-7-methoxy-1,2,3,11a-tetrahydro-5H-pyrrolo[2,1-c][1,4]benzodiazepin-5-one-8-yl)oxybutyl]-2-(1-methyl-3-indolyl)benzimidazol-6-carboxylate], the “Log10 GI50” value is listed as −6.10 mol/L in [1]; −6.27 mol/L in [2]; −6.14 mol/L in test [3]; −6.00 mol/L in test [5]; −6.04 mol/L in test [6]; −6.04 mol/L in test [7]. Moreover, the “Log10 GI50” value in test [8] is −6.62 mol/L; in test [10], −6.08 mol/L; in test [11], −6.88 mol/L. Also, the “Log10LC50 mean graph midpoint (MG_MID)” value in test [4] was −4.92. The “Log10GI50 mean graph midpoint (MG_MID)” value in test [4] was −6.19. The “Log10TGI mean graph midpoint (MG_MID)” value in test [4] is given as −5.65. Further, the “ΔTm after incubation at 37° C. for 0 h” value in [9] amounted to 1.5 °C. The “ΔTm after incubation at 37° C. for 18 h” value in test [9] was 2.0 °C.

As to `COc1cc2c(cc1OCCCn1c(-c3ccccn3)nc3ccccc31)N=C[C@@H]1CCCN1C2=O` [Compound 11a, 7-Methoxy-8-{3-[2-(2-pyridyl)-1H-benzimidazol-1-yl]propyl}oxy-(11aS)-1,2,3,11a-tetrahydro-5H-pyrrolo[2,1-c][1,4]benzodiazepin-5-one], the GI50 in test [1] is 1410 nM; in test [2], 2190 nM; in [3], 1050 nM; in [5], 2510 nM; in [6] it was 1620 nM; in [7], 1910 nM. In addition, the GI50 in [8] is 1350 nM; in test [10], 1580 nM; in [11], 3090 nM. The “Log10LC50 mean graph midpoint (MG_MID)” value in [4] was −4.42. For the same compound, in test [4], the “Log10GI50 mean graph midpoint (MG_MID)” value was −5.75. The “Log10TGI mean graph midpoint (MG_MID)” value in [4] is on record as −5.14. Further, in test [9], the “ΔTm after incubation at 37° C. for 0 h” value came out at 3.0 °C. The “ΔTm after incubation at 37° C. for 18 h” value in test [9] came to 4.2 °C.

As to `COc1cc2c(cc1OCCCCn1c(-c3cccs3)nc3ccccc31)N=C[C@@H]1CCCN1C2=O` [Compound 8e, 7-Methoxy-8-{4-[2-(2-thienyl)-1H-benzimidazol-1-yl]butyl}oxy-(11aS)-1,2,3,11a-tetrahydro-5H-pyrrolo[2,1-c][1,4]benzodiazepin-5-one], the 50% growth inhibitory concentration (GI50) in test [1] was 1580 nM; in test [2], 1580 nM; in [3] it was 912 nM; in [5], 1580 nM; in test [6], 2000 nM; in test [7], 1950 nM. In addition, the GI50 was 1320 nM in test [8], 2090 nM in [10] and 1000 nM in [11]. For the same compound, the “Log10LC50 mean graph midpoint (MG_MID)” value in test [4] is on record as −4.51. In addition, the “Log10GI50 mean graph midpoint (MG_MID)” value in test [4] is reported as −5.81. The “Log10TGI mean graph midpoint (MG_MID)” value in test [4] was −5.18. In addition, the “ΔTm after incubation at 37° C. for 0 h” value in test [9] was found to be 0.1 °C. Also, the “ΔTm after incubation at 37° C. for 18 h” value in test [9] stood at 1.0 °C.

For `COc1cc2c(cc1OCCCCCn1c(-c3ccc(OCc4ccccc4)cc3)nc3ccc(N4CCOCC4)cc31)N=C[C@@H]1CCCN1C2=O` [Compound 11c, 7-Methoxy-8-{5-[2-[(4-(benzyloxy)phenyl)-6-morpholino]benzimidazol-1-yl]pentyl}oxy-(11aS)-1,2,3,11a-tetrahydro-5H-pyrrolo[2,1-c][1,4]benzodiazepin-5-one], the GI50 is 759 nM in test [1]; 1550 nM in [2]; 1550 nM in [3]; 2690 nM in [5]; 2190 nM in test [6]; 2290 nM in test [7]. Also, the values for the GI50 in test [8], in test [10] and in [11] were 2190 nM, 1950 nM and 603 nM, respectively. Further, the “Log10LC50 mean graph midpoint (MG_MID)” value in [4] is given as −4.24. Besides, the “Log10GI50 mean graph midpoint (MG_MID)” value in test [4] is listed as −5.83. Besides, the “Log10TGI mean graph midpoint (MG_MID)” value in test [4] is recorded as −5.00. In test [9], the “ΔTm after incubation at 37° C. for 0 h” value came to 2.9 °C. The “ΔTm after incubation at 37° C. for 18 h” value in [9] is 3.2 °C.
